# Assays:
# MCF-10A cells [1] = assay: Cell cycle analysis by flow cytometry; format: cell-based, human; details: 48 h
# Description: (§1) MDA-MB-231 and MCF-10A cells were seeded in six-well plates at a density of 4 × 10^5 cells/mL (2 mL per well) and cultured for 24 h at 37 °C. […] Vehicle solvent control cells received DMSO (0.10% v/v). Then, cells were trypsinized, collected, washed with phosphate buffered saline (PBS) and fixed with 85% cold ethanol. At the time of analysis, cells were centrifuged at 300× g for 5 min at 4 °C and resuspended in PBS, before being treated with RNase (50 µg/mL) and propidium iodide staining solution (50 µg/mL) and incubated, in the dark, for at least 20 min at room temperature. Propidium iodide-stained cells were analyzed on a Coulter EPICS XL (Beckman Coulter, Hialeah, FL, USA) flow cytometer. The results were acquired using the SYSTEM II software (version 3.0 Beckman-Coulter ®, Brea, CA, USA). Four replicates were performed for each treatment, and for each sample at least 5000 nuclei were acquired. Analysis of cell cycle distribution was performed using the FlowJo software (Tree Star, Ashland, USA).
# MDA-MB-231 cells [2] = assay: Cell cycle analysis by flow cytometry; format: cell-based, human; details: 48 h
# Description: as §1
# MCF-10A cells [3] = assay: 1H NMR analysis of culture medium supernatants (exometabolome); format: cell-based, human
# Description: (§2) MDA-MB-231 and MCF-10A cells were seeded in 10-cm-diameter Petri dishes at a density of 6 × 10^5 cells/mL (10 mL per dish) and cultured for 24 h at 37 °C. Cells were then incubated for 48 h with BA (5 and 15 µM) or UA (10 and 20 µM). Vehicle solvent control cells received DMSO (0.10% v/v). Samples were collected immediately after 48 h incubation or, to assess cellular recovery, medium was replaced with fresh growth medium (without TAs), and cells were incubated for additional 24 h before collection (48 + 24 h samples). Four independent assays were performed.
# (§3) After incubation, culture medium was collected and centrifuged (1000× g, 5 min) and the supernatant stored at −80 °C until analysis. Culture medium without cells was placed under the same conditions and collected. Cell extraction was performed as described by Carrola et al.. Briefly, cells were washed four times with PBS and extracted with a mixture of methanol:chloroform:water (1:1:0.7). The resulting polar and organic phases were collected and then dried under vacuum or under a stream of nitrogen gas, respectively. All samples were stored at −80 °C and, at the time of analysis, dried polar extracts were reconstituted in 600 µL of deuterated phosphate buffer (100 mM, pH 7.4) containing 0.1 mM TSP-d4, while organic extracts were reconstituted in deuterated chloroform containing 0.03% TMS. Regarding medium samples, 540 μL were mixed with 60 μL of D2O containing 0.25% TSP-d4. Prior to analysis, 550 μL of each sample were transferred to 5 mm NMR tubes.
# (§4) ^1H NMR spectra of all samples were acquired on a Bruker Avance III HD 500 NMR spectrometer (University of Aveiro, Portuguese NMR Network) operating at 500.13 MHz for ^1H observation equipped with a 5 mm TXI probe. Standard 1D spectra (Bruker pulse programs ‘noesypr1d’, with water suppression, for medium samples and aqueous extracts, and ‘zg’ for organic extracts) were recorded with a 7002.8 Hz spectral width, 32 k data points, a 2 s relaxation delay and 512 scans. Spectral processing comprised exponential multiplication with 0.3 Hz line broadening, zero filling to 64 k data points, manual phasing, baseline correction, and chemical shift calibration to the TSP or TMS signal at 0 ppm. 2D ^1H-^1H total correlation (TOCSY) spectra, ^1H-^13C heteronuclear single quantum correlation (HSQC) spectra and J-resolved spectra were also registered for selected samples to assist spectral assignment. Metabolites were identified with the support of 2D spectra and the spectral reference databases BBIOREFCODE-2-0-0 (Bruker Biospin, Rheinstetten, Germany) and HMDB [28]. Selected signals were then integrated using the AmixViewer software […] (version 3.9.14, Bruker BioSpin, Rheinstetten, Germany) and normalized by the total spectral area. The magnitude of each metabolite change was assessed through the percentage of variation (and its respective error) in exposed samples relatively to controls, and through the effect size (ES) adjusted for small sample numbers (and respective standard error). Metabolite variations with absolute ES greater than 0.8 were expressed in a heatmap, colored as a function of the percentage of variation, employing the R statistical software.
# MDA-MB-231 cells [4] = assay: as above; format: cell-based, human
# Description: as §2, §3, §4
# MCF-10A cells [5] = tested on: MCF-10A cells; design: method as in PMID 29802332, PMID 30684465; details: previous studies; cited from earlier work
# MDA-MB-231 cells [6] = tested on: MDA-MB-231 cells; design: method as in PMID 22407812; details: BA 2.5–10 μM, 48 h; cited from earlier work
# MDA-MB-231 cells [7] = tested on: MDA-MB-231 cells; design: method as in PMID 28213701; details: cited from earlier work
smiles,measurement,setting,value
"C=C(C)[C@@H]1CC[C@]2(C(=O)O)CC[C@]3(C)[C@H](CC[C@@H]4[C@@]5(C)CC[C@H](O)C(C)(C)[C@@H]5CC[C@]43C)[C@@H]12 [BA, betulinic acid]",cells at the G0/G1 phase,"MCF-10A cells [1]; 15 µM, vs control",decrease in the G0/G1 phase
same,cells at the G2 phase,"MCF-10A cells [1]; 15 µM, vs control",cell cycle arrest at the G2 phase
same,cells at the S phase,"MCF-10A cells [1]; 15 µM, vs control",increase in the S phase
same,cell population at the S phase,"MDA-MB-231 cells [2]; 15 µM, vs non-exposed control",decreased cell population
same,cells at the G2 phase,"MDA-MB-231 cells [2]; 15 µM, vs non-exposed control",significant accumulation
same,consumption of glucose and pyruvate,MCF-10A cells [3]; 48 h,consumed more
same,excretion of lactate,MCF-10A cells [3]; 48 h,excreting more
same,"consumption of glucose, pyruvate and acetate","MCF-10A cells [3]; BA, 48 + 24 h",decreased
same,formate excretion,"MCF-10A cells [3]; BA, 48 + 24 h",increased
same,"consumption of several amino acids (BCAA, glutamine, phenylalanine, tyrosine)","MCF-10A cells [3]; BA, 48 h",significantly reduced
same,excretion of alanine and fumarate,"MCF-10A cells [3]; BA, 48 h",decreased excretion
same,consumption of leucine,"MDA-MB-231 cells [4]; BA 5µM, 48h",decreased significantly
same,glucose consumption,"MDA-MB-231 cells [4]; BA 15µM, 48h",significant increases
same,lactate excretion,"MDA-MB-231 cells [4]; BA 15 µM, 48 h (already noticed at 5 µM)",significant increases
same,consumption of leucine and pyruvate,"MDA-MB-231 cells [4]; BA, 48 + 24 h",consumed less
same,"excretion of 2-oxoisovalerate, citrate and alanine","MDA-MB-231 cells [4]; BA, 48 + 24 h",excreted less
same,glucose consumption and lactate excretion vs untreated controls,"MDA-MB-231 cells [4]; BA, 48 + 24 h",no longer differences
same,influence on MCF-10A cells viability,MCF-10A cells [5],no influence
same,cell cycle effect,MDA-MB-231 cells [6],cell cycle arrest at G2/M phase
same,lactate levels and expression of glycolytic enzymes,"MDA-MB-231 cells [7]; BA up to 20 µM, 24 h",did not alter
"C[C@H]1[C@H](C)CC[C@]2(C(=O)O)CC[C@]3(C)C(=CC[C@@H]4[C@@]5(C)CC[C@H](O)C(C)(C)[C@@H]5CC[C@]43C)[C@H]12 [UA, ursolic acid]",effect on cell cycle phases,"MCF-10A cells [1]; 20 µM, vs untreated",no statistical differences
same,effect on cell cycle phases,"MDA-MB-231 cells [2]; 20 µM, vs untreated",no statistical differences
same,consumption of glucose and pyruvate,MCF-10A cells [3]; 48 h,increasing the consumption
same,excretion of lactate,MCF-10A cells [3]; 48 h,increasing
same,consumption of several amino acids,"MCF-10A cells [3]; UA, 48 h",decreased
same,"consumption of glucose, leucine and choline","MDA-MB-231 cells [4]; UA, 48 + 24 h",decreased consumption
same,"excretion of lactate, 2-oxoisovalerate, citrate, alanine and glutamate","MDA-MB-231 cells [4]; UA, 48 + 24 h",decreased excretion
same,changes in the exometabolome,"MDA-MB-231 cells [4]; UA, 48 h",no significant changes
same,expression of glycolytic enzymes (HK2 and PKM2) and ATP content,MDA-MB-231 cells [7]; UA 5–20 µM,decreased

# From publication PMC7464159, “Triple Negative Breast Cancer and Breast Epithelial Cells Differentially Reprogram Glucose and Lipid Metabolism upon Treatment with Triterpenic Acids” (Biomolecules, 2020)
